Measurements: PMC11378297, “Discovery and Profiling of New Multimodal Phenylglycinamide Derivatives as Potent Antiseizure and Antinociceptive Drug Candidates” (ACS Chemical Neuroscience, 2024)

How the values were obtained:
[1] = chimney test (motor coordination, TD50); conditions: mouse, in vivo, ip, mice
Description: Both the aforementioned parameters (ED50 and TD50) enabled the calculation of protective indexes (PIs), which reflect the comparative the benefit–risk ratio of these experimental therapeutic agents.
Four mice per group were randomly assigned to each experimental group in the initial screening experiments (each mouse was used just once). Four groups, each with eight animals, received injections of different doses of the investigated substances in order to determine the ED50 or TD50 values. The PIs for the compounds investigated and reference ASMs were calculated by dividing the TD50 value, as determined in the chimney test by the respective ED50 value, as determined in the MES, scPTZ, or 6 Hz (32 mA or 44 mA) tests (PI = TD50/ED50). The PIs are a measure of the potential therapeutic window of the tested agent.
All substances were suspended in Tween 80 (1% aqueous solution) and administered i.p. as a single injection at a volume of 10 mL/kg. On each day of experimentation, fresh solutions were prepared.

[2] = tested on: neuromuscular strength, mice; test: grip strength test; type: in vivo, mouse
Method: Prior to the ivPTZ test, a grip strength test was conducted to evaluate the tested eutomers’ acute impact on neuromuscular strength.
30 min prior to the testing, eutomers (R)-31, (R)-32, and (R)-33 were given i.p. after being suspended in a 1% Tween 80 solution. To reduce the number of animals utilized, neuromuscular strength measurements were made right before the seizure threshold test. The grip-strength test and the timed ivPTZ test experimental protocols were covered in full elsewhere.[87]
Figure S3. Effects of (R)-31, (R)-32, and (R)-33 on neuromuscular strength in mice. The compounds were administered i.p., 30 min before the test. Control animals received vehicle. Data are presented as mean ± SD grip strengths in millinewtons per gram of mouse body weight (mN/g); n = 10 animals. The statistical significance was evaluated using the Student’s t test (GraphPad Prism 8). […]

body temperature, mice = test: capsaicin-induced hypothermia test / rectal temperature; type: in vivo, mouse; conditions: 50 mg/kg i.p.
Method: In this study, we used the capsaicin-induced hypothermia model in mice to evaluate the effect of eutomers (R)-31, (R)-32, and (R)-33 on body temperature and to provide more data related to their on-target activity (i.e., antagonism of TRPV1) (Figure S5A–D). Capsaicin given i.p. at a dose of 5 mg/kg produced a marked decrease in rectal temperature at 15 min post injection (p < 0.0001). The temperature returned to normal values within 30–60 min after capsaicin injection. […] None of the tested compounds reversed the capsaicin-induced hypothermia.
The changes in body temperature in the capsaicin-induced hypothermia model were evaluated as described previously. Eutomers (R)-31, (R)-32, and (R)-33 were suspended in a 1% Tween 80 and administered i.p. 15 min before injection of capsaicin (5 mg/kg, i.p.). The corresponding vehicles (1% DMSO or 1% Tween 80) were given to the control animals. Using an electronic thermometer (ThermoWorks, Alpine, Utah, USA), changes in the mouse’s rectal temperature were recorded by inserting the rectal probe approximately 2 cm into the mouse’s rectum. After −15, 0, 15, 30, 60, 90, 120, and 180 min, the measurements were collected. Subsequently, the variations in rectal temperature between the baseline ([…] for the groups receiving compounds and BCTC in conjunction with the vehicle, or […] for the groups receiving the vehicle, compounds, and BCTC in combination with the capsaicin) and the corresponding time point ΔT (°C) were computed and examined.
Figure S5. Acute effects of BCTC (A), (R)-31 (B), (R)-32 (C), and (R)-33 (D) on rectal temperature in the capsaicin-induced test in mice. Capsaicin (CPS) or vehicle (1% DMSO) were injected i.p. at 0 min, as indicated by the arrows.
BCTC, (R)-31, (R)-32, and (R)-33 were suspended in 1% Tween 80 and administered i.p. 15 min before CPS or vehicle injection. The temperature was measured at -15, 0, 15, 30, 60, 90, 120, and 180 min. Since body temperature returned to control values 60 min after CPS injection, subsequent measurements are not shown.
Data are presented as the mean differences (ΔT) in rectal temperature from 0 to -15 min (time point 0 min), from 15 to 0 min (time point 15 min), from 30 to 0 min (time point 30 min), and from 60 to 0 min (time point 60 min); n = 6–8 animals/group. Statistical significance was evaluated using one-way ANOVA with Tukey’s post hoc test: […]
(1 picture or pasted object on this page, not shown here)

CYP2D6 = target: T1, CYP2D6 (Homo sapiens, UniProt P10635); test: CYP2D6 P450-Glo assay; type: in vitro ADME
T1 construct: purchased Promega (Madison, WI, USA)
T1 sequence (P10635 whole entry): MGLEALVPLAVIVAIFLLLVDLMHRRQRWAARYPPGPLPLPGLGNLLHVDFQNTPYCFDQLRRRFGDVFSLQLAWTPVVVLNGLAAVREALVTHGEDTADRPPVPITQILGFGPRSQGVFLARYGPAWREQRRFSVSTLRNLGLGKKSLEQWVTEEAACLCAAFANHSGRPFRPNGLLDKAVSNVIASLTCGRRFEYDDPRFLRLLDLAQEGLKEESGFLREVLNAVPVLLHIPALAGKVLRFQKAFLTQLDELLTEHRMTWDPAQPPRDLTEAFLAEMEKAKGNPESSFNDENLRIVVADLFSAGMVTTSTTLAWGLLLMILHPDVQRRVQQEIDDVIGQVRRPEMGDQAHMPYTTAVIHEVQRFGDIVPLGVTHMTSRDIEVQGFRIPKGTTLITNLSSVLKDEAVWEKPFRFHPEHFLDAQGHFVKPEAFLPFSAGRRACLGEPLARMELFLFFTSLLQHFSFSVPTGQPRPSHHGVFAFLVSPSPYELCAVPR
Method: The inhibition effect of enantiomers on CYP2C9 was also determined, but only at the highest concentrations (Figure 10C). In summary, the potential for DDIs of the tested enantiomers in comparison to the reference CYP inhibitors was estimated as very low.
Figure 10 Influence of (R)-31, (R)-32, and (R)-33 on: CYP3A4 activity (A) and the reference inhibitor ketoconazole (KE), CYP2D6 activity (B) and the reference inhibitor quinidine (QD), CYP2C9 activity (C) and the reference inhibitor sulfaphenazole (SE). The results are presented as means + SD. Statistical significance was evaluated by one-way ANOVA, followed by Bonferroni’s multiple comparison post hoc test (Graph Pad Prism 8.0.1 software) *p < 0.05, **p < 0.01, ***p < 0.001, ****p < 0.0001.
All assays and protocols used for the evaluation of compounds ADME-Tox parameters were described previously.[35]−[38],[95]−[98] The precoated PAMPA Plate System Gentest was utilized to estimate passive permeability (Tewksbury, MA, USA). HLMs, obtained from Sigma-Aldrich (St. Louis, MO, USA), were used for the metabolic stability assay. The most likely sites of metabolism could be identified, thanks to the MetaSite 6.0.1 program from Molecular Discovery Ltd. (Hertfordshire, UK), which was used to support the microsome experiments. The impact on recombinant human cytochromes CYP3A4, CYP2D6, and CYP2C9 was examined using CYP3A4, CYP2D6, and CYP2C9 P450-Glo kits supplied by Promega (Madison, WI, USA) in order to anticipate possible DDIs. […] The vitality of the cells was assessed using the CellTiter 96 AQueous Non-Radioactive Cell Proliferation Assay (Promega, Madison, WI, USA), following a 48 h incubation period with either the reference medication, doxorubicin (DOX), or serial dilutions of the investigated compounds. Using an EnSpire PerkinElmer microplate reader (Waltham, MA, USA), the luminescent signal and absorbances (measured at 490 nm) in DDIs and safety assays were determined. […]

Row | SMILES | TD50 at 0.5 h [1] [mg/kg] | effect on neuromuscular strength (grip strength test) ([2]; 50 mg/kg i.p.) | effect on neuromuscular strength (grip strength test) ([2]; 100 mg/kg i.p.) | effect on body (rectal) temperature, administered alone (body temperature, mice) | effect on CYP2D6 activity (CYP2D6; 1 and 10 μM) | effect on CYP2D6 activity (CYP2D6; 25 μM)
1 | CC(=O)N[C@@H](C(=O)N1CCN(c2cccc(C(F)(F)F)c2)CC1)c1ccccc1 [(R)-31, (R)-N-(2-Oxo-1-phenyl-2-(4-(3-(trifluoromethyl)phenyl)piperazin-1-yl)ethyl)acetamide] | 174 | did not produce any significant effects | did not produce any significant effects | did not significantly affect body temperature | weak activation | –
2 | CC(=O)N[C@@H](C(=O)N1CCN(c2cccc(SC(F)(F)F)c2)CC1)c1ccccc1 [(R)-33, (R)-N-(2-Oxo-1-phenyl-2-(4-(3-((trifluoromethyl)thio)phenyl)piperazin-1-yl)ethyl)acetamide] | 146 | did not produce any significant effects | – | caused a significant drop in rectal temperature | – | slightly inhibited
3 | CC(=O)N[C@@H](C(=O)N1CCN(c2cccc(OC(F)(F)F)c2)CC1)c1ccccc1 [(R)-32, (R)-N-(2-Oxo-1-phenyl-2-(4-(3-(trifluoromethoxy)phenyl)piperazin-1-yl)ethyl)acetamide] | 114 | did not produce any significant effects | – | did not significantly affect body temperature | weak activation | –
